The results in this text go back to patent publication US20190336579A1, “COMPOSITIONS AND METHODS TO INDUCE TARGETED APOPTOSIS BY MODULATING PROTEIN TYROSINE PHOSPHATASE 13 (PTPN13)” (National Jewish Health, priority 2010, published 2019).

Assay [1] has as its system caspase-8. Description: Caspase-8 activation (Fas-induced apoptosis) in lung fibroblasts. The assay is classed as cell-based, human. Particulars: MRC5. On the procedure:
To assess the effects of these cytokines on PTPN13 expression, non-diseased normal human lung fibroblasts (NHLF), fibrotic human lung fibroblasts (FHLF) and a fetal lung fibroblast cell line, MRC5 cells, were treated with TNF-α (10/ng/ml), IFN-γ (50 U/ml) or with both cytokines for 6 hours. PTPN13 expression was measured by quantitative PCR (FIG. 2A). The primary lung fibroblasts from normal and fibrotic lung had equivalent levels of PTPN13 expression to the MRC5 lung fibroblast cell line. […] Treatment with TNF-α alone caused a 40% decrease in PTPN13 expression. Combined exposure to TNF-α and IFN-γ decreased PTPN13 mRNA expression by 80%. Protein lysates from normal, fibrotic and MRC5 fibroblasts treated for 36 hours with TNF-α (10/ng/ml), IFN-γ (50 U/ml) or with both cytokines were then analyzed for PTPN13 expression. […]
In one exemplary method, to assess whether PTPN13 expression prevents Fas-induced apoptosis, PTPN13 expression was knocked-down using siRNA. […] Apoptosis was assayed by quantifying activation of caspase-3 and caspase-8 (FIG. 3C).
In death-receptor mediated apoptosis, formation of the DISC (Death-Inducing Signaling Complex) is essential for the initiation of apoptosis. […] The cells were lysed, immunoprecipitated with anti-Fas antibody, and co-immunoprecipitated FADD and caspase-8 were detected by immunoblotting. […]

Assay [2] has as its system Fas phospho-Y291. Description: Western blot of Fas tyrosine 291 phosphorylation in MRC5 lung fibroblasts. Particulars: pervanadate 150 μM, time dependent. The assay is classed as cell-based, human. The protocol:
PTPN13 has been shown in astrocytoma cells to dephosphorylate Fas at tyrosine 291. Little is known about the regulatory function of tyrosine phosphorylation of Fas. In another exemplary embodiment, to assess the effect of TNF-α and IFN-γ sensitization on the levels of Fas tyrosine phosphorylation, MRC5 lung fibroblasts were treated with TNF-α and IFN-γ for increasing amounts of time. Because TNF-α is known to increase tyrosine phosphorylation of many proteins, such as MAP kinases and AKT, within minutes following stimulation, the kinetics of TNF-α and IFN-γ induced tyrosine phosphorylation of Fas were assessed. MRC5 lung fibroblasts were treated with TNF-α (10 ng/ml) and IFN-γ (50 U/ml) for up to 48 hours. The cells were lysed and analyzed by western blot for phosphorylated Fas, using a phospho-specific antibody for Fas phosho-Y291. TNF-α and IFN-γ increased tyrosine phosphorylation of Fas at tyrosine residue 291 beginning at 18 hours. […] The pervanadate treated MRC5 cells were lysed and analyzed the tyrosine phosphorylation of Fas by western blotting. […] We then detected phosphorylated Fas by Western blot, using a phospho-specific antibody for Fas tyrosine residue 291. […]
FIG. 5: Inhibition of tyrosine phosphatase activity sensitizes lung fibroblasts to Fas-induced apoptosis. […] Caspase-8 activation was measured by a fluorescence based assay. […]
For orientation: In western blotting, separated proteins are transferred to a membrane and probed.

For pervanadate, the “increase in caspase-8 activity over unstimulated cells” value in assay [1] (150 μM pervanadate 2 hour pre-treatment, then Fas-activating antibody 250 ng/ml) turned out to be 6 fold. In assay [1] (150 μM pervanadate alone), the “increase in caspase-8 activity above untreated cells” value stood at 2 fold. In addition, the “tyrosine phosphorylation of Fas” value in assay [2] was “increased”.
